Test results: patent US4263427A, “Monensin urethane derivatives” (priority 1979, dated 1981)
Converted amounts (≈) assume the structure as drawn. Where a name gives a salt, the structure may show the parent alone. Read-outs that look alike come from different tables or passages of the source.

Legend:
rumen fluid = details: 50 ppm; control 100
[1] = Oral antihypertensive activity: blood pressure and heart rate (Table 9); format: in vivo
Excerpt: Compounds of formula I, and their pharmaceutically acceptable salts are orally active as antihypertensive agents.

Treponema hyodysenteriae = test: Activity against Treponema hyodysenteriae (MIC, blood agar plates); format: cell-based; details: Brachyspira hyodysenteriae, 48 h, 42° C., anaerobic
Excerpt: Testing for activity against Treponema hyodysenteriae, a cause of swine dysentery consisted of inoculation of blood agar plates containing a series of two or fourfold dilutions of the monensin urethane derivatives with tenfold dilutions of the T. hyodysenteriae strain.

Bacillus subtilis 583 = test: Minimum Inhibitory Concentration, agarwell diffusion assay (Table 6); format: cell-based
Excerpt: (§1) (a) Lowest twofold dilution giving zone of inhibition in the agarwell
(§2) (b) NRRL collection number, all the rest ate ATCC numbers.

[2] = tested on: Streptococcus cellulosac 3313; test: as above; format: cell-based; details: Streptococcus, 3313, read-out: Minimum Inhibitory Concentration, Streptococcus cellulosac 3313
Excerpt: as §1, §2

Bacillus sp. E 27859 = test: as above; format: cell-based; details: Bacillus
Excerpt: as §1, §2

Bacillus megaterium 8CU = test: as above; format: cell-based; details: Priestia megaterium, 8CU, read-out: Minimum Inhibitory Concentration, Bacillus megaterium 8CU
Excerpt: as §1, §2

Staph. aureus 6538 = test: as above; format: cell-based; details: Staphylococcus aureus, 6538, read-out: Minimum Inhibitory Concentration, Staph. aureus 6538
Excerpt: as §1, §2

[3] = tested on: Streptococcus faecium 8043; test: as above; format: cell-based
Excerpt: as §1, §2

Sarcina lutca 9341 = test: as above; format: cell-based; details: Sarcina, 9341, read-out: Minimum Inhibitory Concentration, Sarcina lutca 9341
Excerpt: as §1, §2

Bacillus sp. TA 27860 = test: as above; format: cell-based; details: Bacillus
Excerpt: as §1, §2

[4] = tested on: Paceilomyces variotl 25820; test: as above; format: cell-based; details: read-out: Minimum Inhibitory Concentration, Paceilomyces variotl 25820
Excerpt: as §1, §2

MycoBacterium phiel 355 = test: as above; format: cell-based; details: Mycobacterium, 355, read-out: Minimum Inhibitory Concentration, MycoBacterium phiel 355
Excerpt: as §1, §2

Plasmodium berghei = test: Oral antimalarial activity against Plasmodium berghei in mice; format: in vivo; details: p.o.
Excerpt: Compounds of formula I wherein R4 is aryl, haloaryl or nitroaryl and their pharmaceutically acceptable salts are orally active as antimalarial agents.

Eimeria tenella = test: Anti-coccidial effect of monensin urethanes added to the feed of infected chickens (Table 7); format: in vivo; details: infected untreated control 3.0, less than 2.5 significant
Method: This test utilizes ten chickens per drug group. Ten chickens are employed as a weight control and ten chickens as an infected control. The drug is given 48 hours in advance of the infection. One gm. of the test drug is mixed in a mechanical mixer with a sufficient amount of chicken feed to result in the desired dosage. The infection consists of approximately 200,000 oocysts given orally by pipette. The tests lasts for eleven days and then the surviving birds are autopsied and examined for gross lesions in the ceca. The test birds are rated according to the number of survivors and the number of cecal lesions. The results are expressed as average degree of infection (A.D.I.). An average degree of infection of less than 2.5 is considered to be significant.

[5] = Bacillus subtilis, 583, Bacillus subtilis 583 (NRRL), read-out: Minimum Inhibitory Concentration
[6] = SP.E27859, Bacillus sp. E 27859, read-out: Minimum Inhibitory Concentration
[7] = Enterococcus faecium, 8043, Streptococcus faecium 8043, read-out: Minimum Inhibitory Concentration
[8] = SP.TA27860, Bacillus sp. TA 27860, read-out: Minimum Inhibitory Concentration

Structure (SMILES) | Day of Maximum Change, Blood Pressure ([1]; oral dose 1 mg/kg) | Maximum Change (%), Blood Pressure ([1]; oral dose 1 mg/kg) | Mean Blood Pressure at time of maximum effect ([1]; oral dose 1 mg/kg) | Mean Blood Pressure before treatment ([1]; oral dose 1 mg/kg) | MIC (Treponema hyodysenteriae) | MIC (Bacillus subtilis 583; [5]) | MIC [2] | MIC (Bacillus sp. E 27859; [6]) | MIC (Bacillus megaterium 8CU) | MIC (Staph. aureus 6538) | MIC [3, 7] | MIC (Sarcina lutca 9341) | MIC (Bacillus sp. TA 27860; [8]) | MIC [4] | MIC (MycoBacterium phiel 355) | ED50 (Plasmodium berghei) | Average Degree of Infected (A.D.I.) (Eimeria tenella; 75 ppm in feed) | further results
CCC1(C2OC(C3OC(O)(COC(=O)Nc4ccc(Br)cc4)C(C)CC3C)CC2C)CCC(C2(C)CCC3(CC(O)C(C)C(C(C)C(OC)C(C)C(=O)O)O3)O2)O1 (centres unmarked) [Monensin A, 4-bromophenylurethane, 4-bromophenylaminocarbonyloxy-(0-11)-monensin, sodium salt] | 2 days | 21% | 178 mm Hg | 225 mm Hg | 0.4 µg/mL | 0.4 µg/mL | 0.8 µg/mL | 0.05 µg/mL | 0.1 µg/mL | 0.8 µg/mL | 0.1 µg/mL | 0.2 µg/mL | 0.2 µg/mL | 1.6 µg/mL | 1.6 µg/mL | 15 to 20 mg/kg | 0.7 | Rate of Gas Production, Percent Production of Control Fermentations (rumen fluid): 103.0%; Total VFA, Percent Production of Control Fermentations (rumen fluid): 89.9%
CCC1(C2OC(C3OC(O)(COC(=O)Nc4ccc(Cl)cc4)C(C)CC3C)CC2C)CCC(C2(C)CCC3(CC(O)C(C)C(C(C)C(OC)C(C)C(=O)O)O3)O2)O1 (centres unmarked) [Monensin A, 4-chlorophenylurethane] | 5 days | 20% | 179 mm Hg | 224 mm Hg | 0.08 µg/mL (≈ 0.097 µM) | 0.4 µg/mL (≈ 0.485 µM) | 0.8 µg/mL (≈ 0.97 µM) | 0.02 µg/mL (≈ 0.0243 µM) | 0.2 µg/mL (≈ 0.243 µM) | 0.4 µg/mL (≈ 0.485 µM) | 0.05 µg/mL (≈ 0.0606 µM) | 0.2 µg/mL (≈ 0.243 µM) | 0.2 µg/mL (≈ 0.243 µM) | 3.1 µg/mL (≈ 3.76 µM) | 0.8 µg/mL (≈ 0.97 µM) | 2.3 mg/kg | – | Day of Maximum Change, Heart Rate ([1]; oral dose 1 mg/kg): 5 days; Maximum Change (%), Heart Rate ([1]; oral dose 1 mg/kg): 19%; Average Degree of Infected (A.D.I.) (Eimeria tenella; 65 ppm in feed): 0.8
CCC1(C2OC(C3OC(O)(COC(=O)Nc4ccc(F)cc4)C(C)CC3C)CC2C)CCC(C2(C)CCC3(CC(O)C(C)C(C(C)C(OC)C(C)C(=O)O)O3)O2)O1 (centres unmarked) [Monensin A, 4-fluorophenylurethane] | – | – | – | – | 0.08 µg/mL (≈ 0.099 µM) | 0.8 µg/mL (≈ 0.99 µM) | 3.1 µg/mL (≈ 3.84 µM) | 0.2 µg/mL (≈ 0.248 µM) | 0.4 µg/mL (≈ 0.495 µM) | 1.6 µg/mL (≈ 1.98 µM) | 0.1 µg/mL (≈ 0.124 µM) | 0.8 µg/mL (≈ 0.99 µM) | 0.8 µg/mL (≈ 0.99 µM) | 3.1 µg/mL (≈ 3.84 µM) | 3.1 µg/mL (≈ 3.84 µM) | – | – | Day of Maximum Change, Blood Pressure ([1]; oral dose 3 mg/kg): 2 days; Maximum Change (%), Blood Pressure ([1]; oral dose 3 mg/kg): 17%; Mean Blood Pressure at time of maximum effect ([1]; oral dose 3 mg/kg): 182 mm Hg; Mean Blood Pressure before treatment ([1]; oral dose 3 mg/kg): 220 mm Hg; Average Degree of Infected (A.D.I.) (Eimeria tenella; 125 ppm in feed): 1.0
CCC1(C2OC(C3OC(O)(COC(=O)Nc4ccc(C)cc4)C(C)CC3C)CC2C)CCC(C2(C)CCC3(CC(O)C(C)C(C(C)C(OC)C(C)C(=O)O)O3)O2)O1 (centres unmarked) [Monensin A, 4-methylphenylurethane, Monensin A, 4-methyl phenylurethane] | 3 days | 16% | 182 mm Hg | 217 mm Hg | – | 0.4 µg/mL (≈ 0.497 µM) | 0.8 µg/mL (≈ 0.995 µM) | 0.05 µg/mL (≈ 0.0622 µM) | 0.2 µg/mL (≈ 0.249 µM) | 0.4 µg/mL (≈ 0.497 µM) | 0.2 µg/mL (≈ 0.249 µM) | 0.4 µg/mL (≈ 0.497 µM) | 0.2 µg/mL (≈ 0.249 µM) | 1.6 µg/mL (≈ 1.99 µM) | 1.6 µg/mL (≈ 1.99 µM) | – | 1.1 | Day of Maximum Change, Heart Rate ([1]; oral dose 1 mg/kg): 4 days; Maximum Change (%), Heart Rate ([1]; oral dose 1 mg/kg): 15%
CCC1(C2OC(C3OC(O)(COC(=O)Nc4ccc([N+](=O)[O-])cc4)C(C)CC3C)CC2C)CCC(C2(C)CCC3(CC(O)C(C)C(C(C)C(OC)C(C)C(=O)O)O3)O2)O1 (centres unmarked) [Monensin A, 4-nitrophenylurethane] | – | – | – | – | – | – | – | – | – | – | – | – | – | – | – | – | 0.5 | –
CCC1(C2OC(C3OC(O)(COC(=O)NC4CCCCC4)C(C)CC3C)CC2C)CCC(C2(C)CCC3(CC(O)C(C)C(C(C)C(OC)C(C)C(=O)O)O3)O2)O1 (centres unmarked) [Monensin A, cyclohexylurethane] | – | – | – | – | 0.4 µg/mL (≈ 0.502 µM) | – | 3.1 µg/mL (≈ 3.89 µM) | – | 0.4 µg/mL (≈ 0.502 µM) | 1.6 µg/mL (≈ 2.01 µM) | – | 0.8 µg/mL (≈ 1 µM) | – | 3.1 µg/mL (≈ 3.89 µM) | 3.1 µg/mL (≈ 3.89 µM) | – | – | MIC (Bacillus subtilis 583; Bacillus subtilis, 583, read-out: Minimum Inhibitory Concentration, Bacillus subtilis 583 (NRRL)): 0.8 µg/mL (≈ 1 µM); MIC (Bacillus sp. E 27859; SP.E27859, read-out: Minimum Inhibitory Concentration, Bacillus sp. E 27859): 0.2 µg/mL (≈ 0.251 µM); MIC ([3]; Enterococcus faecium, 8043, read-out: Minimum Inhibitory Concentration, Streptococcus faecium 8043): 0.1 µg/mL (≈ 0.126 µM); MIC (Bacillus sp. TA 27860; SP.TA27860, read-out: Minimum Inhibitory Concentration, Bacillus sp. TA 27860): 0.6 µg/mL (≈ 0.754 µM); Average Degree of Infected (A.D.I.) (Eimeria tenella; 125 ppm in feed): 0.8
CCC1(C2OC(C3OC(O)(COC(=O)Nc4ccccc4)C(C)CC3C)CC2C)CCC(C2(C)CCC3(CC(O)C(C)C(C(C)C(OC)C(C)C(=O)O)O3)O2)O1 (centres unmarked) [Monensin A, phenylurethane] | – | – | – | – | 0.08 to 0.4 µg/mL (≈ 0.101 to 0.506 µM) | 0.4 µg/mL (≈ 0.506 µM) | 3.1 µg/mL (≈ 3.92 µM) | 0.05 µg/mL (≈ 0.0633 µM) | 0.4 µg/mL (≈ 0.506 µM) | 0.8 µg/mL (≈ 1.01 µM) | 0.1 µg/mL (≈ 0.127 µM) | 0.8 µg/mL (≈ 1.01 µM) | 0.4 µg/mL (≈ 0.506 µM) | 3.1 µg/mL (≈ 3.92 µM) | 3.1 µg/mL (≈ 3.92 µM) | 4 mg/kg | 0.9 | Day of Maximum Change, Blood Pressure ([1]; oral dose 10 mg/kg): 2 days; Maximum Change (%), Blood Pressure ([1]; oral dose 10 mg/kg): 26%; Mean Blood Pressure at time of maximum effect ([1]; oral dose 10 mg/kg): 170 mm Hg; Mean Blood Pressure before treatment ([1]; oral dose 10 mg/kg): 229 mm Hg
